# Test results taken from patent EP0406760B1, “Plant growth regulating composition” (SUMITOMO CHEMICAL COMPANY, LIMITED, priority 1989, dated 1991).
# How the values were obtained:
# antocyanin production = test: Inhibitory effect on antocyanin production in red cabbage seedlings in water culture; assay type: in vivo, red cabbase (var.: Ruby Ball); conditions: 5 days at 25°C under 8000 luxes, in contrast to the non-treated plot
# Method: Water culture (10 ml) containing the compound (I) was charged in a reaction vessel, and on adsorbed cotton laid down therein 15 seeds of red cabbase (var.: Ruby Ball) were sowed and cultivated for 5 days at 25°C under 8000 luxes. The shoot of the […] cabbage was cut and antocyanin was extracted with 1N hydrochloric acid (5 ml). The amount of antocyanin thus extracted was calculated by meauring an absorption at 535 nm on a spectrophotometer. The concentration of the compound (I) which inhibits 50 % the antocyanin production was calculated in contrast to the non-treated plot. Still, neither abnormality in the vegetative part nor suppression of growth of the test plant due to Compound (I) could be observed.
# wheat = test: Inhibitory effect on lignin production in wheat and softening of wheat culm; assay type: in vivo, Wheat (var.: Nohrin No. 61); set-up: key: -: unchanged; +++: prominently softened; conditions: wettable powder applied to the soil, hardness of culms determined manually versus untreated
# From the text: Wheat seeds (var.: Nohrin No. 61) were sowed in small pots (6 seeds/pot) and cultivated in a greenhouse for about one month. When differentiation of culm was recognized, a designated amount of the compound in the form of a wettable powder according to Formulation Example 2 was applied to the soil, and cultivation was continued until blooming. Hardness of wheat culms in contrast to those of untreated was manually determined and evaluated into four indices ranging from (-: unchanged) to (+++: prominently softened).
# [1] = tested on: chlorogenic acid production; test: Inhibitory effect on chlorogenic acid production in sunflower; assay type: in vivo, Sunflowers (var.: Russian Sunflower); conditions: 1000 ppm wettable powder sprayed over the flowers; seed endosperm, HPLC; non-treated 3.4
# Method: Sunflowers (var.: Russian Sunflower) were grown in a greenhouse for two weeks and transplanted in Wagner's pots (1/5000 are) and cultivated for 2 months outdoors. When 5 to 10 days elapsed after blooming, a designated amount of the compound in the form of a wettable powder according to Formulation Example 2 was sprayed over the flowers, from which seeds were harvested. Endosperm of the seeds were crushed and subjected to boiling-extraction with ethanol and filtration. The filtrate was diluted with 0.05 M aqueous H₃PO₄ and further filtered. The amount of chlorogenic acid was quantitatively analysed by HPLC (column: Nucleosil C18 (8 mm x 25 cm); eluent: methanol : 0.05 M H₃PO₄ (35 : 75)).
# scopolamine production = test: Promoting effect on scopolamine production in hairy root culture; assay type: cell-based, Duboisia leichhardtii; conditions: per culture (50 ml), 28 days after addition
# Method: Hairy root of Duboisia leichhardtii are known to produce scopolamine once vegetative parts were infected with Agrobacterium rhizogenes (Plant Science, 59, 191 - 201 (1989)). One hairy root of Duboisia (var.: DL47-1) (wet content, 100 mg) was inoculated in a liquid HF-3 medium (50 ml) and subjected to rotation-culture with a speed of 85 rotations/min at 25°C in the dark place. After twenty-one days, 1000-fold dilution of a dimethylsulfoxide solution of Compound (I) was added to the culture medium to make its final concentration constant. Twenty-eight days thereafter, scopolamine in the hairy roots and the medium was respectively extracted and its amount was measured on a high performance liquid chromatography (HPLC).
# morningglory = test: Inhibitory effect on antocyanin production in morningglory (soil or foliar treatment); assay type: in vivo, morningglory (var.: Scarlet Ohara); conditions: soil and foliar spray treatments
# Method: Seeds of morningglory (var.: Scarlet Ohara) was sowed in small pots (diameter, 8 cm) and cultivated in a greenhouse. At the time of development of cotyledons (9 days after sowing), short-day treatment was performed for 1 week to induce flowering. Five days prior to flowering (length of buds being about 1 to 2 cm), a designated amount of the compound (I) was applied to the soil or sprayed to the foliage of the plant. Cultivation was continued, and color of petals was visually observed in contrast to the non-treated plot and evaluated into five indices ranging from (-: no influence) to (++++: completely whitened).
smiles,measurement,setting,value
"Cc1c(Cl)cccc1NC(=N)C(=O)O [Compound No. 3, N-(3-chloro-2-methylphenyl)amidinoformic acid]",Concentration of 50 % inhibition of antocyanin production,antocyanin production,0.02 ppm
same,Softening index,wheat; 2 mg/pot,+++
same,Content of chlorogenic acid,[1],1.0 µg/mg fr.wt
"Cc1ccc(Cl)cc1NC(=N)C(=O)O [Compound No. 4, N-(5-chloro-2-methylphenyl)amidinoformic acid]",Concentration of 50 % inhibition of antocyanin production,antocyanin production,0.1 ppm
"CCOC(=O)C(=N)Nc1cccc(F)c1C [Compound No. 26, ethyl N-(3-fluoro-2-methylphenyl)amidinoformate]",Concentration of 50 % inhibition of antocyanin production,antocyanin production,0.06 ppm
"Cc1c(Cl)cccc1NC(=N)C(=O)[O-].[Na+] [Compound No. 30, sodium salt of N-(3-chloro-2-methylphenyl)amidinoformic acid]",Concentration of 50 % inhibition of antocyanin production,antocyanin production,0.05 ppm
"Cc1c(Cl)cccc1NC(=N)C(=O)[O-].[K+] [Compound No. 31, potassium salt of N-(3-chloro-2-methylphenyl)amidinoformic acid]",Concentration of 50 % inhibition of antocyanin production,antocyanin production,0.05 ppm
"Cc1cc(F)ccc1NC(=N)C(=O)O [Compound No. 5, N-(4-fluoro-2-methylphenyl)amidinoformic acid]",Concentration of 50 % inhibition of antocyanin production,antocyanin production,0.1 ppm
"Cc1c(F)cccc1NC(=N)C(=O)O [Compound No. 1, N-(3-fluoro-2-methylphenyl)amidinoformic acid]",Concentration of 50 % inhibition of antocyanin production,antocyanin production,0.04 ppm
same,Amount of scopolamine (mg) Medium,scopolamine production; final concentration 0.1 mg/l,2.7 mg
same,Amount of scopolamine (mg) Root,scopolamine production; final concentration 0.1 mg/l,2.1 mg
same,Amount of scopolamine (mg) Total,scopolamine production; final concentration 0.1 mg/l,4.8 mg
same,Amount of scopolamine (mg) Medium,scopolamine production; final concentration 1.0 mg/l,3.4 mg
same,Amount of scopolamine (mg) Root,scopolamine production; final concentration 1.0 mg/l,2.4 mg
same,Amount of scopolamine (mg) Total,scopolamine production; final concentration 1.0 mg/l,5.8 mg
same,Softening index,wheat; 4 mg/pot,+++
same,Content of chlorogenic acid,[1],1.3 µg/mg fr.wt
"NOC(Cc1ccccc1)C(=O)O (stereo not shown) [AOPP, 2-aminoxy-3-phenylpropionic acid, reference compound]",Concentration of 50 % inhibition of antocyanin production,antocyanin production,4 ppm
same,phytotoxicity / adverse effect in the treated plants,morningglory,severe phytotoxicity (withering of leaves)
